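Cultured in 96-well plates, cells were exposed to test compound for 48 hours across five concentrations. At the GI50, growth is halved.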 Activity calls are given as the source filed them. Cut-off read from the data, not from the text of the source: active = GI50 up to about 1.1 µM and inactive = higher.
How the values were obtained:
Assay in all cases: inhibition of tumour cell growth, NCI panel, 48 h
A549 = system: A549
ACHN = system: ACHN
COLO 205 = system: COLO 205
DMS-273 = system: DMS-273
HCC 2998 = system: HCC 2998
HOP-92 = system: HOP-92
M14 = system: M14
NCI-H226 = system: NCI-H226
NCI-H522 = system: NCI-H522
OVCAR-5 = system: OVCAR-5
RPMI-8226 = system: RPMI-8226
SK-MEL-28 = system: SK-MEL-28
SK-OV-3 = system: SK-OV-3
SNB-75 = system: SNB-75
SR = system: SR
SW-620 = system: SW-620
U-251 = system: U-251
UO-31 = system: UO-31

Measured: GI50

C/N=C(\N=c1/ss/c(=N\C)n1C)N(C)C.[O-][Cl+3]([O-])([O-])O
inactive: A549 > 100 µM | ACHN > 100 µM | COLO 205 28.2 µM | DMS-273 37.8 µM | HCC 2998 > 100 µM | HOP-92 > 100 µM | M14 > 100 µM | NCI-H226 45.2 µM | NCI-H522 76 µM | OVCAR-5 > 100 µM | RPMI-8226 74.6 µM | SK-MEL-28 > 100 µM | SK-OV-3 > 100 µM | SNB-75 > 100 µM | SR 70.8 µM | SW-620 > 100 µM | U-251 > 100 µM | UO-31 > 100 µM

CCOC(=O)C1(C/C=C(/C)Cl)CCCC1=O (centres undefined)
inactive: A549 > 100 µM | ACHN > 100 µM | COLO 205 > 100 µM | DMS-273 23 µM | M14 > 100 µM | NCI-H226 > 100 µM | NCI-H522 > 100 µM | OVCAR-5 > 100 µM | RPMI-8226 26.9 µM | SK-MEL-28 > 100 µM | SK-OV-3 > 100 µM | SNB-75 > 100 µM | SR 20.7 µM | U-251 > 100 µM | UO-31 > 100 µM

COC1=CC(=O)[C@H]2[C@H](C)C(c3ccccc3)[C@@]2(C)C1=O (some centres undefined)
inactive: A549 > 100 µM | ACHN > 100 µM | COLO 205 > 100 µM | DMS-273 > 100 µM | HCC 2998 > 100 µM | HOP-92 > 100 µM | M14 > 100 µM | NCI-H522 > 100 µM | OVCAR-5 > 100 µM | RPMI-8226 > 100 µM | SK-MEL-28 > 100 µM | SK-OV-3 > 100 µM | SNB-75 > 100 µM | SR > 100 µM | SW-620 > 100 µM | U-251 > 100 µM | UO-31 > 100 µM

NC(CCc1nc(-c2ccccc2)cs1)C(=O)O (centres undefined)
inactive: A549 > 100 µM | ACHN > 100 µM | COLO 205 > 100 µM | DMS-273 > 100 µM | HCC 2998 > 100 µM | HOP-92 > 100 µM | M14 > 100 µM | NCI-H226 > 100 µM | NCI-H522 > 100 µM | RPMI-8226 > 100 µM | SK-MEL-28 > 100 µM | SK-OV-3 > 100 µM | SNB-75 59.6 µM | SW-620 > 100 µM | U-251 > 100 µM | UO-31 75.2 µM

NC1=NN(c2ccccc2)C(=O)C1/C(=N\NC(=O)c1cc2ccccc2cc1O)C(=O)Nc1nc([N+](=O)[O-])cs1 (centres undefined)
inactive: A549 32.7 µM | ACHN 34.4 µM | COLO 205 23.7 µM | DMS-273 > 45.2 µM | HCC 2998 40.2 µM | HOP-92 13.7 µM | M14 35.7 µM | NCI-H226 49.1 µM | NCI-H522 19.1 µM | OVCAR-5 44.9 µM | RPMI-8226 9.59 µM | SK-MEL-28 42.7 µM | SK-OV-3 55.7 µM | SNB-75 18.5 µM | SR 6.78 µM | SW-620 27.9 µM | U-251 27.7 µM | UO-31 9.42 µM

COC(=O)C(CCS(=O)(=O)CC(=O)C(=O)Nc1cccc(C(C)=O)c1)C(=O)OC
inactive: A549 > 100 µM | ACHN > 100 µM | COLO 205 > 54.5 µM | DMS-273 > 100 µM | HCC 2998 > 100 µM | HOP-92 > 100 µM | M14 > 100 µM | NCI-H226 > 100 µM | NCI-H522 > 92.3 µM | OVCAR-5 > 100 µM | RPMI-8226 > 47.2 µM | SK-MEL-28 > 91.4 µM | SK-OV-3 > 100 µM | SNB-75 > 100 µM | SR 20.9 µM | SW-620 > 100 µM | U-251 > 89.7 µM | UO-31 > 100 µM

COC(=O)/C(=C/c1ccc(OC)cc1)C(C(=O)O)=C1CCCC1
inactive: A549 > 100 µM | ACHN > 100 µM | COLO 205 > 100 µM | DMS-273 > 100 µM | HCC 2998 > 100 µM | HOP-92 > 100 µM | M14 > 100 µM | NCI-H226 > 100 µM | NCI-H522 > 100 µM | OVCAR-5 > 100 µM | RPMI-8226 > 100 µM | SK-OV-3 > 100 µM | SNB-75 > 100 µM | SR > 100 µM | SW-620 > 100 µM | U-251 > 100 µM | UO-31 > 100 µM

O=C1/C(=C/c2cc(O)c(O)c(O)c2)Oc2cc(O)cc(OC3OC(CO)C(O)C(O)C3O)c21 (centres undefined)
inactive: A549 32.4 µM | ACHN 11.6 µM | COLO 205 22.2 µM | DMS-273 1.85 µM | HCC 2998 39.2 µM | HOP-92 3.82 µM | M14 21.5 µM | RPMI-8226 20.2 µM | SK-MEL-28 46.3 µM | SK-OV-3 46.1 µM | SNB-75 > 100 µM | SW-620 24.1 µM | U-251 > 10 µM | UO-31 32.4 µM

CC1CC(C2=CC=CCS2)=Nc2ccccc2S1 (centres undefined)
inactive: A549 > 100 µM | ACHN > 100 µM | COLO 205 > 100 µM | DMS-273 > 100 µM | HCC 2998 80.4 µM | HOP-92 48.4 µM | M14 > 100 µM | NCI-H522 92.3 µM | OVCAR-5 > 100 µM | RPMI-8226 97.5 µM | SK-MEL-28 > 100 µM | SK-OV-3 > 100 µM | SNB-75 14.1 µM | SW-620 > 100 µM | U-251 > 100 µM | UO-31 > 100 µM

C=CCN1COc2c(cc3c4c(cccc24)C(=O)O3)C1
inactive: A549 > 100 µM | ACHN > 10 µM | COLO 205 17.9 µM | DMS-273 38.6 µM | HCC 2998 > 100 µM | HOP-92 16.2 µM | M14 22.9 µM | NCI-H226 > 100 µM | NCI-H522 14.1 µM | OVCAR-5 36.6 µM | RPMI-8226 33.6 µM | SK-MEL-28 24.6 µM | SK-OV-3 > 100 µM | SNB-75 23.8 µM | SW-620 25.4 µM | U-251 > 100 µM | UO-31 23.1 µM

COC(=O)C1Cc2c([nH]c3ccccc23)C(C2CCCCC2)N1 (centres undefined)
inactive: A549 > 100 µM | ACHN > 100 µM | COLO 205 > 100 µM | DMS-273 > 100 µM | HCC 2998 > 100 µM | HOP-92 > 100 µM | M14 > 100 µM | NCI-H226 > 100 µM | NCI-H522 > 100 µM | OVCAR-5 > 100 µM | SK-MEL-28 > 100 µM | SK-OV-3 > 100 µM | SNB-75 > 100 µM | SR > 100 µM | SW-620 > 100 µM | U-251 > 100 µM | UO-31 > 100 µM

COc1cc2c(cc1OC)C1C=NC(C(=O)O)(C2)c2ccccc21 (centres undefined)
inactive: A549 > 100 µM | COLO 205 > 100 µM | DMS-273 > 100 µM | HCC 2998 > 10 µM | HOP-92 > 100 µM | M14 > 100 µM | NCI-H226 > 100 µM | NCI-H522 > 100 µM | OVCAR-5 > 100 µM | RPMI-8226 > 100 µM | SK-OV-3 > 100 µM | SNB-75 > 100 µM | SR > 100 µM | SW-620 > 100 µM | U-251 > 100 µM | UO-31 > 10 µM

O=C1C(Cl)C(c2ccccc2)N1n1cnc2ccccc2c1=O (centres undefined)
inactive: A549 > 100 µM | ACHN > 100 µM | COLO 205 > 100 µM | DMS-273 > 100 µM | HCC 2998 > 100 µM | M14 > 100 µM | NCI-H226 28.4 µM | NCI-H522 55.3 µM | OVCAR-5 > 100 µM | RPMI-8226 54.2 µM | SK-MEL-28 > 100 µM | SK-OV-3 74.6 µM | SNB-75 19.4 µM | SR 36.1 µM | SW-620 > 100 µM | U-251 > 100 µM | UO-31 23.6 µM

Cc1ccc2c(c1)CNc1ccc(C)cc1CN2
inactive: A549 > 100 µM | ACHN > 100 µM | COLO 205 > 100 µM | DMS-273 > 100 µM | HOP-92 > 100 µM | M14 > 100 µM | NCI-H226 > 100 µM | NCI-H522 > 100 µM | OVCAR-5 > 100 µM | RPMI-8226 > 100 µM | SK-OV-3 > 100 µM | SNB-75 3.19 µM | SR > 100 µM | SW-620 > 100 µM | U-251 > 100 µM | UO-31 > 100 µM

CCOc1ccc(NC(=O)CC#N)cc1
inactive: A549 > 100 µM | ACHN > 100 µM | COLO 205 > 100 µM | DMS-273 > 100 µM | HCC 2998 6.79 µM | M14 > 100 µM | NCI-H226 > 100 µM | NCI-H522 > 100 µM | OVCAR-5 > 100 µM | SK-MEL-28 > 100 µM | SK-OV-3 > 100 µM | SNB-75 > 100 µM | SR > 100 µM | SW-620 > 100 µM | U-251 > 100 µM | UO-31 > 100 µM

CCOc1ccccc1NC(=O)C(=O)Cc1nc2ccccc2s1
inactive: A549 > 100 µM | ACHN > 100 µM | COLO 205 > 100 µM | DMS-273 > 100 µM | HCC 2998 > 100 µM | HOP-92 > 100 µM | M14 > 100 µM | NCI-H226 > 100 µM | NCI-H522 > 100 µM | SK-MEL-28 > 100 µM | SK-OV-3 > 100 µM | SNB-75 77.1 µM | SR > 100 µM | SW-620 > 100 µM | U-251 > 100 µM | UO-31 > 100 µM

Reference: ChEMBL document CHEMBL1201862, “PubChem BioAssay data set” (2004)
